Source: patent EP4772500A1, “NOVEL ISOXAZOLE COMPOUND AS TM4SF5-SPECIFIC INHIBITOR AND USE THEREOF” (Seoul National University R&DB Foundation, priority 2023, dated 2025)

Legend:
[1] = test system: SNU761 cells expressing HA-TM4SF5 and FLAG-SLAMF7; assay: Immunofluorescence microscopy of SLAMF7 localization (Pearson's correlation); type: cell-based, human; conditions: 2.5 µM, 24 h, vs DMSO (FIG. 15g-h)
Experimental: After putting a cover glass into each well of a 12-well plate, 10 µg/ml fibronectin (35600, BD Biosciences) diluted in PBS was added thereto and left at room temperature for 1 hour for coating. After washing three times with PBS, 20,000 cells were seeded on each cover glass and cultured in a cell incubator at 37°C for 16 hours. After cultivation, the various expression vectors mentioned above were transfected using Lipofectamine 3000 (L3000015, Invitrogen) and cultured for 24 hours, and then isoxazole was treated or not treated for 24 hours. The cells were fixed with cold 99% methanol at room temperature for 15 minutes and then blocked with 1% BSA in PBS for 1 hour. Primary antibodies, anti-FLAG (NB600-344, Novus Biologicals), anti-LAMP1 (#9091, Cell Signaling Tech,), anti-ZO-1 (402200, Invitrogen), anti-HA (901515, BioLegend), and anti-SLAMF7 (sc-390840, Santa Cruz Biotech.), were diluted in 1% BSA in PBS at a ratio of 1:500 and reacted at 4°C for 16 hours. The next day, the cover glasses were washed three times with PBS, and then fluorescence-conjugated secondary antibodies (Alexa Fluor 488 [goat: A11055 and mouse: A21202] and 555 [goat: A21432 and mouse: A31570] from Invitrogen) were diluted in 1% BSA in PBS at a ratio of 1:500 and reacted at room temperature for 1 hour. After washing three times with PBS, mounting was performed using ProLong™ Gold Antifade (P36930, Invitrogen). Cells were randomly photographed using a Nikon Eclipse Ti microscope with a C2 confocal system, and then the images were analyzed using NIS-Elements software (Nikon, Melville, NY, USA), and colocalization of SLAMF7 with LAMP1 or ZO-1 was calculated using Pearson's correlation coefficients. All images were photographed under the same software settings and equally corrected with Adobe Photoshop. Each dot in the graphs represents a result measured from a single cell.
SNU449-TM4SF5 cells overexpressing TM4SF5 were seeded on cover glasses pre-coated with collagen Type I (10 µg/ml), and 15 hour later, PD-L1-HA cDNA was transfected using Lipofectamine 3000 (Thermo Fisher). […] After reacting again with secondary antibodies at room temperature for 30 minutes (TRITC fluorescence for LAMP1, TRITC or Alexa Fluor® 488 fluorescence for TM4SF5, and FITC fluorescence for PD-L1 or SLAMF7), the expression levels, localizations, and colocalizations (indicated in yellow) of the fluorescently-stained factors were observed using a confocal fluorescence microscope.
(a) SNU761 cells expressing HA-EV or HA-TM4SF5 and FLAG-SLAMF7 were stored at 4°C and then cultured at 37°C for the given periods. […] The colocalization coefficient was calculated by Pearson's correlation (b). […]

Human Jurkat T cells = assay: T cell activation (Granzyme B, PD-1) after PMA/INO; type: cell-based; conditions: for activation by PMA/INO (Granzyme B production): PMA (10 ng/ml) and INO (1 µg/ml), 24 hours (FIG. 18a)
Experimental: (a) Human Jurkat T cells were activated by treating with PMA (10 ng/ml) and INO (1 µg/ml) for 24 hours. A non-treated state was also included as a control. […] (b) Human Jurkat T cells were either not treated or treated with PMA (25 ng/ml) and INO (1 µg/ml) for 24 hours, and IL-21 was treated at a level of 50 ng/ml for the last 6 hours. Simultaneously with the PMA/INO treatment, ST-5-002 was treated or not treated at 2.5 µM. At this time, the expression levels of Granzyme B and PD-1, or the phosphorylation of Ser473 of AKTs and Thr202/Tyr204 of ERKs, were enhanced by PMA/INO.

Structure (SMILES)	SLAMF7 colocalized at the lysosomal membrane [1]	SLAMF7 expression/localization at the plasma membrane (PM) [1]	activation by PMA/INO (Granzyme B production) (Human Jurkat T cells)	expression of Granzyme B and PD-1 (Human Jurkat T cells; PMA (25 ng/ml) and INO (1 µg/ml), 2.5 µM alone (FIG. 18b))	level of Granzyme B (Human Jurkat T cells; PMA/INO, 2.5 µM together with IL-21 50 ng/ml (FIG. 18b))
CC(=O)Nc1ccc(-c2cc(-c3ccc(O)cc3)no2)cc1 [ST-5-001, N-(4-(3-(4-hydroxyphenyl)isoxazole-5-yl)phenyl)acetamide]	decreased	rather increased	further increased	–	–
Cc1ccc(C(=O)Nc2ccc(-c3cc(-c4ccc(O)cc4)no3)cc2)cc1 [ST-5-002, N-(4-(3-(4-hydroxyphenyl)isoxazole-5-yl)phenyl)-4-methylbenzamide]	decreased	rather increased	further increased	further increased	even higher
